The results in this text go back to US9073853B2, “Cycloalkane carboxylic acid derivatives as CXCR3 receptor antagonists” (Sanofi, priority 2011, dated 2015).

In the experiment the target is human CXCR3-A receptor (Homo sapiens (Human), UniProt P49682). The experiment can be described thus: 125I-CXCL10 competition radioligand binding assay. The note with it: displacement of 125I-CXCL10 from membranes of CHO cells expressing human recombinant CXCR3-A. In a few lines: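 Membranes from a recombinant cell line expressing human CXCR3-A (10-20 μg protein) were incubated with 125I-CXCL10 and test compound for 60 min at 25° C, then filtered onto PEI-soaked GF/B filters and gamma-counted. IC50 and Hill slope came from four-parameter nonlinear fitting of competition curves.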
human CXCR3-A receptor, sequence (P49682 whole entry): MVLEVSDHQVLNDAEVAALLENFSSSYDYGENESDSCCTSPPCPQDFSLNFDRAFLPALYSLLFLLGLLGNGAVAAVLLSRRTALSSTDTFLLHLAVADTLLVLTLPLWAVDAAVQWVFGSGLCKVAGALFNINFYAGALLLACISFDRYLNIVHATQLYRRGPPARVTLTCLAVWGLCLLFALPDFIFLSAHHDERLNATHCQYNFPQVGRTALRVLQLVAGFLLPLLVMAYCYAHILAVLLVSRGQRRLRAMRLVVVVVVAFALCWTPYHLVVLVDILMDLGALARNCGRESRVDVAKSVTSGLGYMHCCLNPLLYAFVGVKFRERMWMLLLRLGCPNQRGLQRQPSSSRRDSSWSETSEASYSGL
Broadly, the IC50 is the point on the concentration scale where inhibition reaches its midpoint. `CCC(c1ccc(Cl)cc1)N(Cc1ccc(OCCn2c(=O)ccn(C)c2=O)c(OC)c1)C[C@H]1CC[C@H](C(=O)O)CC1` (stereo partly drawn) [Example 68, trans-4-[([1-(4-Chloro-phenyl)-propyl]-{3-methoxy-4-[2-(3-methyl-2,6-dioxo-3,6-dihydro-2H-pyrimidin-1-yl)-ethoxy]-benzyl}-amino)-methyl]-cyclohexanecarboxylic acid]: the IC50 was determined as 143 nM.
To `CCC(c1ccc2c(c1)CCO2)N(Cc1ccc(OCCN2C(=O)CCC2=O)c(C)c1)C[C@H]1CC[C@H](C(=O)O)CC1` (stereo partly drawn) [Example 69, trans-4-[([1-(2,3-Dihydro-benzofuran-5-yl)-propyl]-{4-[2-(2,5-dioxo-pyrrolidin-1-yl)-ethoxy]-3-methyl-benzyl}-amino)-methyl]-cyclohexanecarboxylic acid] belongs 56 nM; to `CCC(c1ccc(Cl)cc1)N(Cc1ccc(OCCN2C(=O)CN(C)C2=O)c(C)c1)C[C@H]1CC[C@H](C(=O)O)CC1` (stereo partly drawn) [Example 70, trans-4-[([1-(4-Chloro-phenyl)-propyl]-{3-methyl-4-[2-(3-methyl-2,5-dioxo-imidazolidin-1-yl)-ethoxy]-benzyl}-amino)-methyl]-cyclohexanecarboxylic acid], 180 nM.
For the molecule `CCc1cc(CN(C[C@H]2CC[C@H](C(=O)O)CC2)[C@H]2CCc3cc(Cl)ccc32)ccc1OCCN1C(=O)CCC1=O` [Example 71, trans-4-[(((S)-5-Chloro-indan-1-yl)-{4-[2-(2,5-dioxo-pyrrolidin-1-yl)-ethoxy]-3-ethyl-benzyl}-amino)-methyl]-cyclohexanecarboxylic acid], the IC50 was 176 nM.
To `O=C1CCC(=O)N1CCOc1ccc(CN(C[C@H]2CC[C@H](C(=O)O)CC2)[C@H]2CCc3cc(Cl)ccc32)cc1F` [Example 72, trans-4-[(((S)-5-Chloro-indan-1-yl)-{4-[2-(2,5-dioxo-pyrrolidin-1-yl)-ethoxy]-3-fluoro-benzyl}-amino)-methyl]-cyclohexanecarboxylic acid] belongs 825 nM; to `C[C@@H](c1ccc(Cl)cc1)N(Cc1ccc(OCCN2C(=O)CCC2=O)c(F)c1)C[C@H]1CC[C@H](C(=O)O)CC1` [Example 73, trans-4-[([(S)-1-(4-Chloro-phenyl)-ethyl]-{4-[2-(2,5-dioxo-pyrrolidin-1-yl)-ethoxy]-3-fluoro-benzyl}-amino)-methyl]-cyclohexanecarboxylic acid], 154 nM; to `COc1cc(CN(C[C@H]2CC[C@H](C(=O)O)CC2)[C@H]2CCc3cc(Cl)c(Cl)cc32)ccc1OCCN1C(=O)CCC1=O` [Example 74, trans-4-[(((S)-5,6-Dichloro-indan-1-yl)-{4-[2-(2,5-dioxo-pyrrolidin-1-yl)-ethoxy]-3-methoxy-benzyl}-amino)-methyl]-cyclohexanecarboxylic acid], 350 nM.
To `CCc1cc(CN(C[C@H]2CC[C@H](C(=O)O)CC2)[C@@H](C)c2ccc(Cl)cc2)ccc1OCCN1C(=O)CCC1=O` [Example 75, trans-4-[([(S)-1-(4-Chloro-phenyl)-ethyl]-{4-[2-(2,5-dioxo-pyrrolidin-1-yl)-ethoxy]-3-ethyl-benzyl}-amino)-methyl]-cyclohexanecarboxylic acid] belongs 45 nM.
Next, `CCc1cc(CN(C[C@H]2CC[C@H](C(=O)O)CC2)C(C)c2ccc3c(c2)CCO3)ccc1OCCN1C(=O)CCC1=O` (stereo partly drawn) [Example 76, trans-4-[([1-(2,3-Dihydro-benzofuran-5-yl)-ethyl]-{4-[2-(2,5-dioxo-pyrrolidin-1-yl)-ethoxy]-3-ethyl-benzyl}-amino)-methyl]-cyclohexanecarboxylic acid]: 45 nM.
On to `COc1cc(CN(C[C@H]2CC[C@H](C(=O)O)CC2)C(C)c2ccc(Cl)c(Cl)c2)ccc1OCCN1C(=O)CCC1=O` (stereo partly drawn) [Example 77, trans-4-[([1-(3,4-Dichloro-phenyl)-ethyl]-{4-[2-(2,5-dioxo-pyrrolidin-1-yl)-ethoxy]-3-methoxy-benzyl}-amino)-methyl]-cyclohexanecarboxylic acid], for which the IC50 worked out at 182 nM.
To `Cc1cc(CN(C[C@H]2CC[C@H](C(=O)O)CC2)C(C)c2ccc(Cl)c(Cl)c2)ccc1OCCN1C(=O)CCC1=O` (stereo partly drawn) [Example 78, trans-4-[([1-(3,4-Dichloro-phenyl)-ethyl]-{4-[2-(2,5-dioxo-pyrrolidin-1-yl)-ethoxy]-3-methyl-benzyl}-amino)-methyl]-cyclohexanecarboxylic acid] belongs 270 nM.
As for `C[C@@H](c1ccc(Cl)cc1)N(Cc1ccc(OCCN2C(=O)CCC2=O)cc1)C[C@H]1CC[C@H](C(=O)O)CC1` [Example 79, trans-4-[([(S)-1-(4-Chloro-phenyl)-ethyl]-{4-[2-(2,5-dioxo-pyrrolidin-1-yl)-ethoxy]-benzyl}-amino)-methyl]-cyclohexanecarboxylic acid], the half-inhibitory concentration (IC50) was 154 nM.
To `CCc1ccc(C(C)N(Cc2ccc(OCCN3C(=O)CCC3=O)c(OC)c2)C[C@H]2CC[C@H](C(=O)O)CC2)cc1` (stereo partly drawn) [Example 81, trans-4-({{4-[2-(2,5-Dioxo-pyrrolidin-1-yl)-ethoxy]-3-methoxy-benzyl}-[1-(4-ethyl-phenyl)-ethyl]-amino}-methyl)-cyclohexanecarboxylic acid] belongs 245 nM; to `COc1cc(CN(C[C@H]2CC[C@H](C(=O)O)CC2)C(C)c2ccc(Cl)c(F)c2)ccc1OCCN1C(=O)CCC1=O` (stereo partly drawn) [Example 82, trans-4-[([1-(4-Chloro-3-fluoro-phenyl)-ethyl]-{4-[2-(2,5-dioxo-pyrrolidin-1-yl)-ethoxy]-3-methoxy-benzyl}-amino)-methyl]-cyclohexanecarboxylic acid], 46 nM; to `Cc1ccc(C(C)N(Cc2ccc(OCCN3C(=O)CCC3=O)c(C)c2)C[C@H]2CC[C@H](C(=O)O)CC2)cc1` (stereo partly drawn) [Example 83, trans-4-{[{4-[2-(2,5-Dioxo-pyrrolidin-1-yl)-ethoxy]-3-methyl-benzyl}-(1-p-tolyl-ethyl)-amino]-methyl}-cyclohexanecarboxylic acid], 146 nM.
Next, `COc1cc(CN(C[C@H]2CC[C@H](C(=O)O)CC2)C(C)c2ccc(C)cc2)ccc1OCCN1C(=O)CCC1=O` (stereo partly drawn) [Example 84, trans-4-{[{4-[2-(2,5-Dioxo-pyrrolidin-1-yl)-ethoxy]-3-methoxy-benzyl}-(1-p-tolyl-ethyl)-amino]-methyl}-cyclohexanecarboxylic acid]: 107 nM.
Next, `C[C@@H](c1ccc(Cl)cc1)N(Cc1ccc(OCCN2C(=O)CCC2=O)c(CO)c1)C[C@H]1CC[C@H](C(=O)O)CC1` [Example 85, trans-4-[([(S)-1-(4-Chloro-phenyl)-ethyl]-{4-[2-(2,5-dioxo-pyrrolidin-1-yl)-ethoxy]-3-hydroxymethyl-benzyl}-amino)-methyl]-cyclohexanecarboxylic acid]: 71 nM; `CCc1cc(CN(C[C@H]2CC[C@H](C(=O)O)CC2)[C@H]2CCc3c2ccc(Cl)c3Cl)ccc1OCCN1C(=O)CCC1=O` [Example 86, trans-4-[(((S)-4,5-Dichloro-indan-1-yl)-{4-[2-(2,5-dioxo-pyrrolidin-1-yl)-ethoxy]-3-ethyl-benzyl}-amino)-methyl]-cyclohexanecarboxylic acid]: 85 nM; `COc1cc(CN(C[C@H]2CC[C@H](C(=O)O)CC2)[C@@H](C)c2ccc(Cl)cc2)ccc1SCCN1C(=O)CCC1=O` [Example 87, trans-4-[([(S)-1-(4-Chloro-phenyl)-ethyl]-{4-[2-(2,5-dioxo-pyrrolidin-1-yl)-ethylsulfanyl]-3-methoxy-benzyl}-amino)-methyl]-cyclohexanecarboxylic acid]: 19 nM.
